Laboratory results: patent publication US20050119301A1, “Treatment of restenosis” (priority 2001, published 2005)
Entries after “also recorded” stand apart in the source; their conditions may differ.

Experiments:
[1] = system: rat isolated aortic rings; experiment: Protection against endothelium damage induced by oxidised LDL, acetylcholine dilatation (Protocol 3)
Description: Male Sprague-Dawley rats (250±50 g) were gassed with 80% CO2 and 20% O2 until killed. The thoracic aorta was excised and quickly placed in ice-cold Krebs modified solution composed of NaCl […], […] 4.7 mM, MgSO4 7H2O 1.17 mM, NaHCO3 25 mM, KH2PO4 1.18 mM, CaCl2 2.5 mM, glucose 11 mM and EDTA 0.03 mM. It was then trimmed of fat and connective tissue and cut into 2-3 mm wide rings. Each ring was mounted on two parallel stainless steel hooks in a single water-jacketed 3 ml organ bath containing modified Krebs solution maintained at 37° C. and bubbled with 95% O2 plus 5% CO2. The lower hook was attached to a movable support leg and the upper hook to an FTO3 force transducer (Grass Scientific Instruments, Mitutoyo, Japan) for isometric recordings. Changes in force were amplified (Quadbridge amplifier, Scientific Concepts Inc., Victoria, Australia) and recorded on a MacLab 8E data acquisition system (Adinstruments Pty Ltd., NSW, Australia) linked to an Apple computer (Apple Computer Inc, Cupertina, Calif.). Rings were set at an initial tension of 2 g and allowed to equilibrate for 30 minutes after which time they were re-set to 2 g tension before the commencement of each experimental protocol.
Full concentration response curves to phenylephrine were constructed from which the concentration giving a submaximal contraction of approximately 80% was selected (usually 0.3 μM). Tissues were then constricted with phenylephrine at the selected concentration and allowed to plateau. Full concentration dilatory curves were then constructed to acetylcholine. […]
Human plasma was obtained from the blood bank. […] The protein content of the final LDL fraction obtained was determined by the simplified protein assay method of Lowry. […]
Contractile responses are expressed in g tension (mean+standard error of the mean). Dilatory responses are expressed as a percentage of the contractile force generated by the pre-constricting agent used. […]

[2] = system: Human umbilical vein endothelial cells; experiment: Endothelial cell migration (wound) assay; assay type: cell-based; set-up: dose or concentration left out as unconfirmed; conditions: after 30 hours
Description: Human umbilical vein endothelial cells between passage 1 and 3 were used. They were grown in gelatin coated flasks in medium 199 with Earle's Salts supplemented with 20% foetal calf serum, 25 mg/ml endothelial cell growth supplement and 25 mg/ml heparin.
5×10^5 cells per well in growth medium were plated onto fibronectin coated 6 well trays and grown to confluence. A wound was produced along the monolayer with the use of a cell scraper (Costar). The cells were then washed once and fresh medium with the test compounds was added. Defined points along the wound were marked using an ink condenser (Olympus microscopes) allowing the movement of cells to be visualized at constant points over the next 48 hours. Photographs were taken at relevant times and the degree of cell movement from the wound front assessed.

Compound	potency of protective effect against ox-LDL relative to 17β-estradiol [1]	protective effect against ox-LDL inhibition of acetylcholine dilatation (in words) ([1]; ox-LDL 0.3 mg protein/ml, β-estradiol 10 pg/ml, Cpd. 5 300 ng/ml, Cpd. 7 1 μg/ml, Cpd. 8 and 12 3 μg/ml)	endothelial cell migration towards the wound [2]
Oc1ccc(C2COc3cc(O)ccc3C2O)cc1 (stereo not drawn) [Cpd. 8]	at least 10 times	diminished the inhibitory effect of ox-LDL; also recorded: significantly protects against endothelium damage by oxidized LDL	
Oc1ccc(C2=Cc3ccc(O)cc3OC2)cc1 [Cpd. 12]			markedly inhibited endothelial cell migration
